Species: Rattus norvegicus
Assay: Open TG-GATES - Regimen: Daily Repeat
Format: toxicity, organism-based, Sprague-Dawley
Design: regimen Daily Repeat, gender Male, age 6 weeks
Settings: in vivo, po, 1000 mg/kg, route gavage, dose level High; for APTT / Bas / Eos / Fbg / Hb / Ht / Lym / MCH / MCHC / MCV / Mono / Neu / PT / Plat / RBC / Ret / WBC: tissue Blood
[1] = 72 h, tissue Kidney, time 3 day
[2] = 72 h, tissue Plasma, time 3 day

CCOC(=O)CCC(=O)O[C@H]1[C@H](O[C@@H]2[C@@H](C)[C@H](O[C@H]3C[C@@](C)(OC)[C@@H](O)[C@H](C)O3)[C@@H](C)C(=O)O[C@H](CC)[C@@](C)(O)[C@H](O)[C@@H](C)C(=O)[C@H](C)C[C@@]2(C)O)O[C@H](C)C[C@@H]1N(C)C [ERYTHROMYCIN ETHYLSUCCINATE]
TERMINAL_BW (72 h, time 3 day): 226.1 g | APTT (72 h, time 3 day): 20.6 s | Bas (72 h, time 3 day): 0% | Eos (72 h, time 3 day): 1% | Fbg (72 h, time 3 day): 325 mg/dL | Hb (72 h, time 3 day): 14.4 g/dL | Ht (72 h, time 3 day): 41.8% | Lym (72 h, time 3 day): 86.4% | MCH (72 h, time 3 day): 21.2 pg | MCHC (72 h, time 3 day): 34.4% | MCV (72 h, time 3 day): 61.6 fL | Mono (72 h, time 3 day): 3% | Neu (72 h, time 3 day): 8.6% | PT (72 h, time 3 day): 15.7 s | Plat (72 h, time 3 day): 125 x10_4/uL | RBC (72 h, time 3 day): 679.6 x10_4/ul | Ret (72 h, time 3 day): 3.4% | WBC (72 h, time 3 day): 68.6 x10_2/uL | KIDNEY_L [1]: 1 g | KIDNEY_R [1]: 1 g | KIDNEY_TOTAL [1]: 2 g | LIVER (72 h, tissue Liver, time 3 day): 9.5 g | A/G [2]: 1.2 | ALP [2]: 1860.4 IU/L | ALT [2]: 38.2 IU/L | AST [2]: 67.4 IU/L | BUN [2]: 17 mg/dL | CRE [2]: 0.2 mg/dL | Ca [2]: 10.5 mg/dL | Cl [2]: 108.4 meq/L | DBIL [2]: 0.002 mg/dL | GLC [2]: 178 mg/dL | IP [2]: 7.2 mg/dL | K [2]: 4.2 meq/L | LDH [2]: 198.2 IU/L | Na [2]: 141.8 meq/L | PL [2]: 155.6 mg/dL | RALB [2]: 3.1 g/dL | TBIL [2]: 0.032 mg/dL | TC [2]: 95.2 mg/dL | TG [2]: 58.4 mg/dL | TP [2]: 5.7 g/dL | gamma-GTP [2]: 1.4 IU/L | TERMINAL_BW ([…], time 7 day): 250.4 g | TERMINAL_BW ([…], time 14 day): 298.7 g | TERMINAL_BW ([…], time 28 day): 358.6 g | APTT ([…], time 7 day): 21.4 s | Bas ([…], time 7 day): 0% | Eos ([…], time 7 day): 1% | Fbg ([…], time 7 day): 338.6 mg/dL | Hb ([…], time 7 day): 13.6 g/dL | Ht ([…], time 7 day): 40.3% | Lym ([…], time 7 day): 81.6% | MCH ([…], time 7 day): 20.5 pg | MCHC ([…], time 7 day): 33.9% | MCV ([…], time 7 day): 60.4 fL | Mono ([…], time 7 day): 2.2% | Neu ([…], time 7 day): 14% | PT ([…], time 7 day): 16.6 s | Plat ([…], time 7 day): 112.5 x10_4/uL | RBC ([…], time 7 day): 666.4 x10_4/ul | Ret ([…], time 7 day): 3.8% | WBC ([…], time 7 day): 93.3 x10_2/uL | APTT ([…], time 14 day): 20.5 s | Bas ([…], time 14 day): 0% | Eos ([…], time 14 day): 0.8% | Fbg ([…], time 14 day): 327.6 mg/dL | Hb ([…], time 14 day): 14.2 g/dL | Ht ([…], time 14 day): 40.6% | Lym ([…], time 14 day): 83% | MCH ([…], time 14 day): 20.5 pg | MCHC ([…], time 14 day): 34.8% | MCV ([…], time 14 day): 59 fL | Mono ([…], time 14 day): 3.2% | Neu ([…], time 14 day): 11.4% | PT ([…], time 14 day): 16.2 s | Plat ([…], time 14 day): 107.4 x10_4/uL | RBC ([…], time 14 day): 690 x10_4/ul | Ret ([…], time 14 day): 4.6% | WBC ([…], time 14 day): 91.9 x10_2/uL | APTT ([…], time 28 day): 24.9 s | Bas ([…], time 28 day): 0% | Eos ([…], time 28 day): 1% | Fbg ([…], time 28 day): 340.4 mg/dL | Hb ([…], time 28 day): 15.2 g/dL | Ht ([…], time 28 day): 43.7%

Reference: ChEMBL document CHEMBL3885861, “Open TG-GATES”
